Experiments:
FaDu cells [1] = assay: in vitro cell viability of FaDu cells; format: cell-based, human
Description: (§1) In the following examples, FaDu cells are used in cell viability tests and colony forming assays. FaDu cells (ATCC HTB-43) is a human head-and-neck cell line with squamous phenotype. FaDu cells used in the following examples are cultured in DMEM medium supplemented with 10% fetal bovine serum (FBS) and 1% penicillin/streptomycin, in a humidified incubator maintained at 37° C. and 5% CO2.
Referring to FIG. 4, an in vitro cell viability chart of FaDu cells when treated with BrdU is provided in accordance with an exemplary embodiment of the present disclosure. FaDu cells are treated with different dosages of BrdU for 24 hours and then FaDu cells are analyzed daily for cell viability. FaDu cells are derived from pharynx squamous cell carcinoma of human, and are resistant to radiation. 3×10^5 FaDu cells are seeded in 6-cm-plates. After 24 hours, different dosages of BrdU are added into the culture medium and incubated with the FaDu cells for another 24 hours.
Referring to FIG. 5, an in vitro cell viability chart of FaDu cells when treated with IdU is provided in accordance with an exemplary embodiment of the present disclosure. FaDu cells are treated with different dosages of IdU for 24 hours and then FaDu cells are analyzed for cell viability. FaDu cells are seeded in plate and treated with IdU by similar experiment procedures with FIG. 4.
Referring to FIG. 6, an in vitro viability chart of FaDu cells when irradiated by NR is provided in accordance with an exemplary embodiment of the present disclosure. FaDu cells are treated with different radiation doses of NanoRay radiation (NR). FaDu cells are trypsinized and collected by centrifugation. The centrifuged FaDu cells are then re-suspended in PBS in a 1.5-ml tube with 5×10^4 cells in 20 μL. The tube containing centrifuged FaDu cells are then subjected to different radiation doses of NR. […] From FIGS. 4, 5 and 6, it is concluded that an optimized dosage for BrdU and IdU for in vivo experiments would be 10 μM, and the optimized radiation dose for NR is within 4 Gy.

FaDu cells [2] = assay: colony forming assay of FaDu cells; format: cell-based, human
Description: as §1
Referring to FIGS. 9A-C, an in vitro cell viability chart of FaDu cells when treated with BrdU alone, NR alone, and BrdU and NR, is provided in accordance with an exemplary embodiment of the present disclosure. NR treatments in FIGS. 9A, 9B, and 9C are similar with the experiment procedures for FIG. 6. In samples where FaDu cells are treated with BrdU and NR, FaDu cells are incubated with BrdU for 24 hours before irradiated with NR. Referring to FIG. 9B, a colony forming assay result of FaDu cells after the treatments described in […], is provided in accordance with an exemplary embodiment of the present disclosure. The colony forming assay in FIG. 9B are proceeded as following: FaDu cells treated by different regimens are grouped and seeded in 6-well-plates with 1000 cells in each of the well and cultured for 14 days; the culture medium was replaced every 3 to 4 days; in the end of the experiment, the cells are washed twice with PBS and fixed with 4% paraformaldehyde for 15 minutes and stained with 0.1% crystal violet. Referring to FIG. 9C, a quantitative result of the colony forming assay in FIG. 9B is provided in accordance with an exemplary embodiment of the present disclosure. In FIG. 9C, the results of the colony forming assay are quantified by microscopic examination by stereomicroscope.

FaDu cells [3] = assay: flow cytometry analysis of BrdU/IdU DNA incorporation in FaDu cells; format: cell-based, human; details: 24 hours
Description: Referring to FIG. 7A, a flow cytometry analysis of FaDu cells without BrdU treatment is provided in accordance with an exemplary embodiment of the present disclosure. FaDu cells are analyzed by flow cytometry using BrdU Flow Kits (BD Pharmingen), in absence of BrdU. FaDu cells are trypsinized, washed, fixed, permeablized, blocked, and then treated with DNase I (5 U/10^6 cells/100 μL) for 1 hour at 37° C. FaDu cells are then hybridized with anti-BrdU antibodies for 1 hour at room temperature. After several washes, FaDu cells are analyzed for fluorescent signals with LSR II Analytic Flow Cytometer (BD Biosciences). […] Referring to FIGS. 7B-D, flow cytometry analyses of FaDu cells when treated with BrdU are provided in accordance with an exemplary embodiment of the present disclosure. In FIGS. 7B-D, FaDu cells are analyzed by flow cytometry with the same experiment procedures for FIG. 7A. FaDu cells in FIGS. 7B, 7C, and 7D are respectively treated with 0.5 μM BrdU, 1 μM BrdU, and 10 μM BrdU for 24 hours. […] The DNA incorporation efficiency of BrdU is 1 μM to more than 90% of FaDu cells, therefore 1 μM would be used in the subsequent experiment as an optimized dosage of BrdU. Referring to FIG. 8A, a flow cytometry analysis of FaDu cells without IdU treatment is provided in accordance with an exemplary embodiment of the present disclosure. FaDu cells are analyzed by flow cytometry using BrdU Flow Kits (BD Pharmingen), in absence of IdU. FaDu cells are treated with similar experiment procedures as in FIG. 7A, but anti-BrdU antibodies are replaced with anti-IdU antibodies. For the detection of IdU-incorporated cells, FaDu cells being treated by anti-IdU antibodies are then hybridized with a secondary antibody conjugated by proper fluorescent dye for 1 hour at room temperature. […] Referring to FIGS. 8B-D, flow cytometry analyses of FaDu cells when treated with IdU are provided in accordance with an exemplary embodiment of the present disclosure. FaDu cells are analyzed by flow cytometry with similar experiment procedures as in 7A. […] The DNA incorporation efficiency of IdU is 10 μM to more than 90% of FaDu cells, therefore 10 μM would be used in the subsequent experiment as an optimized dosage of IdU.

FaDu cells [4] = assay: in vitro cell viability of FaDu cells; format: cell-based, human; details: for synergy of combination with RS2000 versus RS2000 alone: conventional X-ray RS2000, FaDu cells
CASPASE-3 = assay: immunohistochemical (IHC) examination of subcutaneous FaDu tumor cells; format: in vivo, mouse; details: 1 day after treatment
Description: One day after the tumorigenic mouse are treated with IdU, or the combination of IdU and 4.5 Gy of NR/RS2000, the subcutaneous FaDu tumor cells are subjected to immunohistochemical (IHC) examination. […] The control group in FIGS. 15A-15F or FIGS. 16A-16B is the subcutaneous FaDu tumor cells without any treatment. […] CASPASE-3 is directly involved in apoptosis, therefore the combination of IdU and NR is proven to induce tumor growth inhibition.

[5] = 10 μM IdU combined with 1 Gy of 33 keV NR

| Structure (SMILES) | cytotoxicity of the combination with NR (FaDu cells [1]) | toxicity (FaDu cells [1]; FaDu cells, 1 μM BrdU) | colony forming inhibition (FaDu cells [2]; 1 μM BrdU combined with 1 Gy of 14 keV NR) [%] | FaDu cells labeled (FaDu cells [3]; 0.5 μM BrdU) | FaDu cells labeled (FaDu cells [3]; more than 1 μM of BrdU) | cell viability (FaDu cells [4]; 1 μM BrdU and 1Gy of RS2000 (conventional X-ray)) | synergy of combination with RS2000 versus RS2000 alone (FaDu cells [4]) | cell viability versus IdU or NR alone (FaDu cells [1]; [5]) | colony forming inhibition versus IdU or NR alone (FaDu cells [2]; [5]) | FaDu cells labeled (FaDu cells [3]; IdU 0.5 μM as printed (FIG. 8B)) | FaDu cells labeled (FaDu cells [3]; more than 10 μM of IdU) | apoptotic cells (IHC, qualitative) (CASPASE-3; IdU and 4.5 Gy of NR, versus other groups) | CASPASE-3 expression in the tumor cells (IHC, quantitative) (CASPASE-3; IdU and NR, versus other treatments) |
| --- | --- | --- | --- | --- | --- | --- | --- | --- | --- | --- | --- | --- | --- |
| O=c1[nH]c(=O)n([C@H]2C[C@H](O)[C@@H](CO)O2)cc1Br [BrdU, bromodeoxyuridine] | strong synergistic cytotoxicity | almost no toxicity | 57.5 | about 83% | more than 90% | lower cell viability | does not have synergistic effects | – | – | – | – | – | – |
| O=c1[nH]c(=O)n([C@H]2C[C@H](O)[C@@H](CO)O2)cc1I [IdU, iododeoxyuridine] | strong synergistic cytotoxicity | – | – | – | – | – | does not have synergistic effects | lower | higher | about 84% | more than 90% | more apoptotic cells | more pronounced CASPASE-3 expression |
